Measured values as given in patent US20070203098A1, “Pten Inhibitors” (priority 2004, published 2007).
Like-named read-outs stand apart in the source and are kept apart here. Each block holds one compound with its values, some of them ahead of it.

Columns and labels:
Type in all cases: biochemical
PTP1B = target: T1, PTP1B (Homo sapiens, UniProt P18031); experiment: PTP1B Inhibition Assay: IC50 Determinations
T1 sequence (P18031 1-435): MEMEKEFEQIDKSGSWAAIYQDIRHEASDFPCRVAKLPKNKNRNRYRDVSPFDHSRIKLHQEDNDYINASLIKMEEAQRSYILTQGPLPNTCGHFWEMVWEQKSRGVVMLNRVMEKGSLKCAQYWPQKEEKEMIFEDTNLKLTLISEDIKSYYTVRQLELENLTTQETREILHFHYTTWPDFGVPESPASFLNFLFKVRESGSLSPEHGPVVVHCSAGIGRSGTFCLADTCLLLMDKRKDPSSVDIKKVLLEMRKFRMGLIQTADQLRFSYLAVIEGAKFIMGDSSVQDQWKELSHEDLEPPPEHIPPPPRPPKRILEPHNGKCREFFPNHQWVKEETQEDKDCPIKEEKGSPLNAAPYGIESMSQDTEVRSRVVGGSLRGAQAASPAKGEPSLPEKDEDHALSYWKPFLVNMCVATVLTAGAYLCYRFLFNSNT

PTEN [1] = target: T2, PTEN (Homo sapiens, UniProt P60484); experiment: PTEN Inhibition Assay: General Screening
PTEN [2] = target: T2, PTEN; experiment: PTEN Inhibition Assay: IC50 Determinations
[3] = read-out: % Inhibition @ 250 uM
[4] = 250 uM, Table 27 isatins, read-out: % Inhibition @250 uM

T2 sequence (P60484 whole entry, species assumed): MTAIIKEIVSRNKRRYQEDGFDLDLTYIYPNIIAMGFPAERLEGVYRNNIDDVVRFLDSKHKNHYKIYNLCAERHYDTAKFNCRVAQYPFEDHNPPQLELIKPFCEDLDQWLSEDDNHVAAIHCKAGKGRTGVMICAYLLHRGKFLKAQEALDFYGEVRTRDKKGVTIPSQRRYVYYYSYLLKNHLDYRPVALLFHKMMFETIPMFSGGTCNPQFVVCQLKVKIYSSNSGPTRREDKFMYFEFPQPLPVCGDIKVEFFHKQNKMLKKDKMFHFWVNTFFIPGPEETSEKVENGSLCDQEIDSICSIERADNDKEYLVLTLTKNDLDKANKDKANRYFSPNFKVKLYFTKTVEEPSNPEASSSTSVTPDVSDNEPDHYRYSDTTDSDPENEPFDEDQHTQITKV

Compound: COc1ccc(OCC(=O)Nc2ccc3c(c2)C(=O)C(=O)c2ccccc2-3)cc1 [SF1751-000]
- IC50 (PTP1B; Table 29, read-out: PTP1B IC50): 3000 nM
- inhibition at 250 µM (PTEN [1]; [3]): 99.2%
- IC50 (PTEN [2]; Table 29, read-out: PTEN IC50): 300 nM

Compound: Cc1ccc(OCC(=O)Nc2ccc3c(c2)C(=O)C(=O)c2ccccc2-3)cc1 [SF1771-000]
- IC50 (PTP1B): 442 nM
- inhibition at 250 µM (PTEN [1]; [3]): 99.2%
- IC50 (PTEN [2]): 395 nM

Compound: CC(C)c1ccccc1OCC(=O)Nc1ccc2c(c1)C(=O)C(=O)c1ccccc1-2 [SF1772-000]
- IC50 (PTP1B; Table 29, read-out: PTP1B IC50): 681 nM
- inhibition at 250 µM (PTEN [1]; [3]): 99.4%
- IC50 (PTEN [2]; Table 29, read-out: PTEN IC50): 435 nM

Compound: O=C1C(=O)c2cc(NS(=O)(=O)c3ccc([N+](=O)[O-])cc3)ccc2-c2ccccc21 [SF1774-000]
- IC50 (PTP1B; Table 29, read-out: PTP1B IC50): 331 nM
- inhibition at 250 µM (PTEN [1]; [3]): 98.6%
- IC50 (PTEN [2]; Table 29, read-out: PTEN IC50): 214 nM

- IC50 (PTP1B; Table 29, read-out: PTP1B IC50): 11000 nM
- inhibition at 250 µM (PTEN [1]; [4]): 98.5%
- IC50 (PTEN [2]; Table 29, read-out: PTEN IC50): 22100 nM
Compound: Cc1ccc(C(=O)Nc2ccc3c(c2)C(=O)C(=O)N3)cc1 [SF1778-000]

Compound: CC(C)(C)c1ccc(S(=O)(=O)Nc2ccc3c(c2)C(=O)C(=O)c2ccccc2-3)cc1 [SF1780-000]
- IC50 (PTP1B; Table 29, read-out: PTP1B IC50): 120 nM
- inhibition at 250 µM (PTEN [1]; [3]): 98%
- IC50 (PTEN [2]; Table 29, read-out: PTEN IC50): 269 nM

- IC50 (PTP1B; Table 29, read-out: PTP1B IC50): 294 nM
- inhibition at 250 µM (PTEN [1]; [4]): 97.8%
- IC50 (PTEN [2]; Table 29, read-out: PTEN IC50): 18900 nM
Compound: O=C(COc1ccccc1)Nc1ccc2c(c1)C(=O)C(=O)N2 [SF1781-000]

- IC50 (PTP1B; Table 29, read-out: PTP1B IC50): 1100 nM
- inhibition at 250 µM (PTEN [1]; [4]): 97.8%
- IC50 (PTEN [2]; Table 29, read-out: PTEN IC50): 4600 nM
Compound: O=C1C(=O)N(Cc2ccc(Cl)cc2Cl)c2ccc([N+](=O)[O-])cc21 [SF1783-000]

Compound: O=C(CCCc1ccccc1)Nc1ccc2c(c1)C(=O)C(=O)c1ccccc1-2 [SF1785-000]
- IC50 (PTP1B): 1000 to 10000 nM
- inhibition at 250 µM (PTEN [1]; [3]): 97.9%
- IC50 (PTEN [2]): 5000 nM

Compound: CCOC(=O)C(=O)Nc1ccc2c(c1)C(=O)C(=O)c1ccccc1-2 [SF1786-000]
- IC50 (PTP1B): < 1000 nM
- inhibition at 250 µM (PTEN [1]; [3]): 99.8%
- IC50 (PTEN [2]): 692 nM

Compound: COc1ccccc1OCC(=O)Nc1ccc2c(c1)C(=O)C(=O)c1ccccc1-2 [SF1787-000]
- IC50 (PTP1B; Table 29, read-out: PTP1B IC50): < 1000 nM
- inhibition at 250 µM (PTEN [1]; [3]): 94.7%
- IC50 (PTEN [2]; Table 29, read-out: PTEN IC50): 548 nM

Compound: COc1cccc(OCC(=O)Nc2ccc3c(c2)C(=O)C(=O)c2ccccc2-3)c1 [SF1788-000]
- IC50 (PTP1B; Table 29, read-out: PTP1B IC50): < 1000 nM
- inhibition at 250 µM (PTEN [1]; [3]): 96.9%
- IC50 (PTEN [2]; Table 29, read-out: PTEN IC50): 410 nM

Compound: Nc1ccc2c(c1)C(=O)C(=O)c1ccccc1-2 [SF1789-000]
- IC50 (PTP1B): 2970 nM
- inhibition at 250 µM (PTEN [1]; [3]): 99%
- IC50 (PTEN [2]): 776 nM

Compound: O=C(COc1ccc(Cl)cc1)Nc1ccc2c(c1)C(=O)C(=O)c1ccccc1-2 [SF1790-000]
- IC50 (PTP1B): 1000 to 10000 nM
- inhibition at 250 µM (PTEN [1]; [3]): 99.2%
- IC50 (PTEN [2]): 2600 nM

Compound: O=C(COc1ccccc1[N+](=O)[O-])Nc1ccc2c(c1)C(=O)C(=O)c1ccccc1-2 [SF1796-000]
- IC50 (PTP1B; Table 29, read-out: PTP1B IC50): < 10000 nM
- inhibition at 250 µM (PTEN [1]; [3]): 99%
- IC50 (PTEN [2]; Table 29, read-out: PTEN IC50): 650 nM

Compound: O=C1C(=O)c2cc(NS(=O)(=O)c3cccs3)ccc2-c2ccccc21 [SF1798-000]
- IC50 (PTP1B): < 10000 nM
- inhibition at 250 µM (PTEN [1]; [3]): 93.6%
- IC50 (PTEN [2]): 369 nM

Compound: O=C(Nc1ccc2c(c1)C(=O)C(=O)c1ccccc1-2)c1cccs1 [SF1799-000]
- IC50 (PTP1B): < 10000 nM
- inhibition at 250 µM (PTEN [1]; [3]): 99.4%
- IC50 (PTEN [2]): 733 nM

Compound: O=C1C(=O)c2cc(NCc3ccccc3)ccc2-c2ccccc21 [SF1800-000]
- IC50 (PTP1B): < 10000 nM
- inhibition at 250 µM (PTEN [1]; [3]): 98%
- IC50 (PTEN [2]): 862 nM

Compound: Cc1cc(C)cc(S(=O)(=O)Nc2ccc3c(c2)C(=O)C(=O)c2ccccc2-3)c1 [SF1801-000]
- IC50 (PTP1B): < 10000 nM
- inhibition at 250 µM (PTEN [1]; [3]): 95.3%
- IC50 (PTEN [2]): 1010 nM

Compound: CC(C)(C)c1ccc(C(=O)Nc2ccc3c(c2)C(=O)C(=O)c2ccccc2-3)cc1 [SF1803-000]
- IC50 (PTP1B; Table 29, read-out: PTP1B IC50): < 1000 nM
- inhibition at 250 µM (PTEN [1]; [3]): 83%
- IC50 (PTEN [2]; Table 29, read-out: PTEN IC50): 14600 nM

Compound: O=C(O)CCC(=O)Nc1ccc2c(c1)C(=O)C(=O)c1ccccc1-2 [SF1804-000]
- IC50 (PTP1B): 1000 to 10000 nM
- inhibition at 250 µM (PTEN [1]; [3]): 98.6%
- IC50 (PTEN [2]): 54700 nM

Compound: O=C(CNc1ccc2c(c1)C(=O)C(=O)c1ccccc1-2)OCc1ccccc1 [SF1807-000]
- IC50 (PTP1B): < 1000 nM
- inhibition at 250 µM (PTEN [1]; [3]): 93.9%

Compound: CCOC(=O)Nc1ccc2c(c1)C(=O)C(=O)c1ccccc1-2 [SF1808-000]
- IC50 (PTP1B): < 1000 nM
- inhibition at 250 µM (PTEN [1]; [3]): 96.2%

Compound: CCOC(=O)c1cccc(OCC(=O)Nc2ccc3c(c2)C(=O)C(=O)c2ccccc2-3)c1 [SF1811-000]
- inhibition at 250 µM (PTEN [1]; [3]): 98.6%

- IC50 (PTP1B; Table 29, read-out: PTP1B IC50): > 10000 nM
- inhibition at 250 µM (PTEN [1]; [4]): 40.5%
Compound: O=C(CCc1ccccc1[N+](=O)[O-])Nc1ccc2c(c1)C(=O)C(=O)N2 [SF1812-000]

- inhibition at 250 µM (PTEN [1]; [4]): 97.3%
- IC50 (PTEN [2]; Table 29, read-out: PTEN IC50): 24500 nM
Compound: O=C1Nc2c(Cl)ccc(Cl)c2C1=O [SF1822-000]

Compound: Monoperoxo(picolinato)oxovanadate(V) [SF1677-000, reference compound]
- % Inh. @ 250 uM in PTEN Assay (PTEN [1]): 96.9%
